Experiments:
[1] = test system: A2780DDP
Description: In testing β-lapachone against the cisplatin-resistant-cell lines, cells were exposed to β-lapachone solutions for 4 h. The cells were then rinsed and fresh medium was added. Cultures were observed daily for 10–20 days and then were fixed and stained. Colonies of greater than 30 cells were scored as survivors.

[2] = target: T1, human DNA Topoisomerases I (Homo sapiens, UniProt P11387); conditions: cited from earlier work
T1 sequence (P11387 1-765): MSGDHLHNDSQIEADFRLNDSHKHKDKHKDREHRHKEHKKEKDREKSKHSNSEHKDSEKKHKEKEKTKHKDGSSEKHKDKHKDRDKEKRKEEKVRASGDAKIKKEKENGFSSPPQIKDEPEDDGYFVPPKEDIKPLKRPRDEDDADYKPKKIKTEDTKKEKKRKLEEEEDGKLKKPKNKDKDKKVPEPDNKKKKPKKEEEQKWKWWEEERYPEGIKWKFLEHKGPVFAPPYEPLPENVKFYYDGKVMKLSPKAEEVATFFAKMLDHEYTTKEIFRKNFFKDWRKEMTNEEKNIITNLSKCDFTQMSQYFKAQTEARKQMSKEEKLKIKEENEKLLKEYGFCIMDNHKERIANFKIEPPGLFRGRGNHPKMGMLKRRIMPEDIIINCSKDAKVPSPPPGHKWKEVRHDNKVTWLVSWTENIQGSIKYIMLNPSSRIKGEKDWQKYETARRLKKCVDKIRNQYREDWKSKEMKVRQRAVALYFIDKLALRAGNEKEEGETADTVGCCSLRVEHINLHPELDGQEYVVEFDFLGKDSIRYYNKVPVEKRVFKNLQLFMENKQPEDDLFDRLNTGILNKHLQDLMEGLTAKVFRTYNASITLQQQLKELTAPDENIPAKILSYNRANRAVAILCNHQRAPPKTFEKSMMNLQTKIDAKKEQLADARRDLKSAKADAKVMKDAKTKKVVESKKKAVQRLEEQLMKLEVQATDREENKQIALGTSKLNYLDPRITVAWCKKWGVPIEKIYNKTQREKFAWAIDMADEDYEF

[3] = test system: human cancer cell lines; conditions: single agent, typical range; read-out: antineoplastic activity (IC50); cited from earlier work
[4] = Relative solubility of 14C-labeled β-lapachone in aqueous solutions of solubilizing agents; type: physicochemical
Description: In light of the above, two different strategies were used to enhance β-lapachone solubility in aqueous solution. First, β-lapachone was treated with metal chelating agents, such as calcium and magnesium, to form soluble complexes; second, β-lapachone was treated with the solubilizing agents β-cyclodextrin and γ-cyclodextrin to form soluble inclusion complexes. In order to evaluate these four reagents, ^14C-labeled β-lapachone in a small volume of ethanol was added to aqueous solutions of the reagents (or to PBS buffer as a control), then the relative solubility of β-lapachone in each of the solutions was measured in terms of radioactivity remaining in the supernatant after centrifugation.
Specifically, to individual 1.5 ml Eppendorf tubes containing 900 μl of PBS buffer were added the following: 8 mM CaCl2 in PBS buffer, 8 mM of MgCl2 in PBS buffer, 8 mM β-cyclodextrin in PBS buffer, and 8 mM γ-cyclodextrin in PBS buffer. 10 μl of C^14 labeled β-lapachone (40,000 CPM, 0.55 μg) in 75% ethanol was then added to each tube. After vortexing and centrifuging at 13,000 rpm for 10 min, 100 μl of the supernatant solution was counted for radioactivity using a Beckman Scintillation Counter. […] After vortexing and centrifuging at 13,000 rpm for 10 min, 100 μl of the supernatant solution was counted again for radioactivity. […]

CC1(C)CCC2=C(O1)c1ccccc1C(=O)C2=O [β-lapachone]
cytotoxicity as single agent, resistant versus parent line [1]: equally cytotoxic | in vitro inhibition [2]: potent in vitro inhibition | IC50 [3]: 1 to 10 µM | β-lapachone present in the supernatant ([4]; 0.5 μg β-lapachone added, all five aqueous solutions (PBS, CaCl2, MgCl2, β-cyclodextrin, γ-cyclodextrin)): ~100% | β-lapachone retained in the supernatant ([4]; 600 μg β-lapachone added, 8 mM β-cyclodextrin in PBS buffer (only this solution)): more than 50%

From patent publication US7074824B2, “Pharmaceutical compositions containing beta-lapachone, or derivatives or analogs thereof, and methods of using same” (Arqule, Inc., priority 2001, dated 2006)
